Reference: PMC9820167, “Design and Synthesis of Conformationally Flexible Scaffold as Bitopic Ligands for Potent D3-Selective Antagonists” (International Journal of Molecular Sciences, 2022)

What was measured:
Histamine H2 = Histamine H2 (Homo sapiens, UniProt P25021); test: PDSP binding screen
Opioid KOR = Opioid KOR (Homo sapiens, UniProt P41145); test: PDSP binding screen; settings: read-out: Ki (nM) or % inhibition at 10 µM: KOR
BZP Rat Brain Site = test: PDSP binding screen; settings: HCl salts
Muscarinic M2 = biological target: T1, Muscarinic M2 (Homo sapiens, UniProt P08172); test: PDSP binding screen
T1 sequence (P08172 1-466): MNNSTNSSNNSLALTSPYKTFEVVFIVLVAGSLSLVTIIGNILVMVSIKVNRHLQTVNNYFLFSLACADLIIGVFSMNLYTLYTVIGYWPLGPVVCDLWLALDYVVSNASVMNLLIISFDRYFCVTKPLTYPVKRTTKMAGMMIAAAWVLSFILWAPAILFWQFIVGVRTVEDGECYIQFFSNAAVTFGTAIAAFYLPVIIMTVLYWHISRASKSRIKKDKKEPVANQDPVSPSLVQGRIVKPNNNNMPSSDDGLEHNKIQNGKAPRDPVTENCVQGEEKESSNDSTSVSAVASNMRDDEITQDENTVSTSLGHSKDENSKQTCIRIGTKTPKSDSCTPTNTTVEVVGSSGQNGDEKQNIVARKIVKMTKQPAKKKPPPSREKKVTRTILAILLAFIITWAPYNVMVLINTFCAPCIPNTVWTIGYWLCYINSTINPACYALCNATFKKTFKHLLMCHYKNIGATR

Serotonin 5-HT7A = Serotonin 5-HT7A (Homo sapiens, UniProt P34969); test: PDSP binding screen; settings: read-out: Ki (nM) or % inhibition at 10 µM: 5-HT7A
[1] = biological target: Benzodiazepine receptor (PBR) (Rattus norvegicus, UniProt P16257); test: PDSP binding screen; settings: for Ki (nM) or % inhibition at 10 µM: Benzodiazepine receptor (PBR): PDSP, HCl salts
Histamine H3 = Histamine H3 (Homo sapiens, UniProt Q9Y5N1); test: PDSP binding screen; settings: read-out: Ki (nM) or % inhibition at 10 µM: H3
human D2 receptors = biological target: T2, human D2 receptors (Homo sapiens, UniProt P14416); test: Radioligand binding assay with [125I]IABN, D2 receptor; settings: [125I]IABN, D2 receptors expressed in HEK cells; mean ± SEM, three experiments; HCl salts; read-out: Ki ± SEM (nM) D2
T2 construct: expressed in transfected cells; host or cells: HEK293
Experimental: Two different assays were used to evaluate the properties of the analogs described above. The receptor binding affinity was measured by radioligand binding assays using [^125I]IABN with D2 or D3 receptors highly expressed HEK293 cells. The functional activity of the analogs was determined using a β-arrestin recruitment assay. […] The results of the antagonist mode assay are reported as IC50 values.
Ki values for D2 and D3 receptors were measured using [^125I]IABN in human D2 and D3 receptors expressed in HEK cells, respectively. A filtration binding assay was used to characterize membrane-associated receptor binding properties. The details for the procedures were described in the literature.

GABAA = test: PDSP binding screen; settings: HCl salts
Adrenergic alpha2B = biological target: T3, Adrenergic alpha2B (Homo sapiens, UniProt P18089); test: PDSP binding screen
T3 sequence (P18089 1-450): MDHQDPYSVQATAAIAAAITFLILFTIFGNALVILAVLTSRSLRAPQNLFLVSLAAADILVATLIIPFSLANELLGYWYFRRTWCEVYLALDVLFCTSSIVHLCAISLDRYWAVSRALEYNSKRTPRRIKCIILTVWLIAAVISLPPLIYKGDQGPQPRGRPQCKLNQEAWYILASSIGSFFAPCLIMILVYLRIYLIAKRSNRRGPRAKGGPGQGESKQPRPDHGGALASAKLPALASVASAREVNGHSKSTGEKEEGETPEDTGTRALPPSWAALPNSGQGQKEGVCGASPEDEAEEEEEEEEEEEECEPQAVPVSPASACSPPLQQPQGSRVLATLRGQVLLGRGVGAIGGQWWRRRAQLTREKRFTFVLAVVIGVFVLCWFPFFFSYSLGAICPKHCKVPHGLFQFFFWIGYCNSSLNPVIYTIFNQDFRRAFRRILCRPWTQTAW

human D3 receptors = human D3 receptors (Homo sapiens, UniProt P35462); test: β-arrestin recruitment assay (antagonist mode, competition with dopamine); type: cell-based; set-up: expressed in transfected cells; settings: for Emax: percentage of the maximum inhibition of dopamine at EC80 concentration, read-out: Imax (% Control); for IC50: potency for D3 receptors, CHO-K1 cells, vs 30 nM (EC80) dopamine, mean ± SD, three experiments, read-out: IC50
Experimental: Two different assays were used to evaluate the properties of the analogs described above. The receptor binding affinity was measured by radioligand binding assays using [^125I]IABN with D2 or D3 receptors highly expressed HEK293 cells. The functional activity of the analogs was determined using a β-arrestin recruitment assay. The assay was initially conducted in agonist binding mode to confirm that they function as antagonists at the D3 receptor. Once this efficacy was confirmed, the assay was conducted in antagonist mode to determine the ability of the antagonist to compete with dopamine at the D3 receptor. The results of the antagonist mode assay are reported as IC50 values.
CHO-K1 cells which were overexpressed human D3 receptors were cultured in assaycomplete^TM cell culture kit 107. Cells were seeded at a density of 25,000 cells per well of 96-well plate, and incubated at 5% CO2, 37 °C. Two days later, test compounds were dissolved in DMSO, and diluted with 11-point series in phosphate-buffered saline (PBS). Prepared compounds were added to the cells, and it was incubated for 30 min at 5% CO2, 37 °C. Then, cells were treated with 30 nM (EC80) of dopamine, and the plate was incubated another 90 min. PathHunter^TM detection reagent was added to each well, and then plate was incubated for 80 min at RT in the dark. The chemiluminescent signal was measured by PerkinElmer Enspire plate reader (PerkinElmer, Boston, MA). Data were analyzed by Prism followed by non-linear regression.

Opioid MOR = Opioid MOR (Homo sapiens, UniProt P35372); test: PDSP binding screen
Serotonin 5-HT1D = Serotonin 5-HT1D (Homo sapiens, UniProt P28221); test: PDSP binding screen
Sequence of Serotonin 5-HT1D (P28221 whole entry): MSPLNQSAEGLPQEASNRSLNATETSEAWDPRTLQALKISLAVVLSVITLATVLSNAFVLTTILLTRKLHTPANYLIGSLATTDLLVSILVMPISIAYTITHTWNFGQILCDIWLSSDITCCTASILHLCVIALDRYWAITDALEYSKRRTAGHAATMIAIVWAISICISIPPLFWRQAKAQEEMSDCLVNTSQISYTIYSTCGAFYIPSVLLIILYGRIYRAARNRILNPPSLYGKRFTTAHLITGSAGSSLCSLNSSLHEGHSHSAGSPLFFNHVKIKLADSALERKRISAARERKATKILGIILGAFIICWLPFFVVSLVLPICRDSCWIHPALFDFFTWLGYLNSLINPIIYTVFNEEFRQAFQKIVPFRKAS

Sequence of Histamine H3 (Q9Y5N1 whole entry): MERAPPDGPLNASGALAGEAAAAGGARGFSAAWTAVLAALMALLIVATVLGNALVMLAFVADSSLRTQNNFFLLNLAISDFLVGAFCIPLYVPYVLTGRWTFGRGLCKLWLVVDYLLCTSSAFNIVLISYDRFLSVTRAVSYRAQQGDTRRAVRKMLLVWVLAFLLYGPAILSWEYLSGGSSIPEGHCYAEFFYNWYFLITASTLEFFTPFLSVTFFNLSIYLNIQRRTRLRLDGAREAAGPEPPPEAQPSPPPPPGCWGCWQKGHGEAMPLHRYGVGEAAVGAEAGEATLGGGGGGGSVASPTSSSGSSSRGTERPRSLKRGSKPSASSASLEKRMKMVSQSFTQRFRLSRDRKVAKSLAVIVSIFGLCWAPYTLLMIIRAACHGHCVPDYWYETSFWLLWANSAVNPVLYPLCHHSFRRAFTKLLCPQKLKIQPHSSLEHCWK
Sequence of human D3 receptors (P35462 whole entry): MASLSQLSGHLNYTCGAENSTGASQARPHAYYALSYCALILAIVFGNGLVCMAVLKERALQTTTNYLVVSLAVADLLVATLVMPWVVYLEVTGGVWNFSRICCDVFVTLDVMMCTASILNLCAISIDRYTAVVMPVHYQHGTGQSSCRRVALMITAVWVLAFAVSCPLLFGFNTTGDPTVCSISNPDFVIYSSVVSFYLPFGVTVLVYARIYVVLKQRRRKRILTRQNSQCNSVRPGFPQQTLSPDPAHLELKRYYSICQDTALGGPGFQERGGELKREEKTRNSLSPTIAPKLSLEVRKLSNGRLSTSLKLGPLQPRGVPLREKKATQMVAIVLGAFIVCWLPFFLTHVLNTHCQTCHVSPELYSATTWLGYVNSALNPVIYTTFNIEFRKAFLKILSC
Sequence of Serotonin 5-HT7A (P34969 1-445 isoform P34969-2): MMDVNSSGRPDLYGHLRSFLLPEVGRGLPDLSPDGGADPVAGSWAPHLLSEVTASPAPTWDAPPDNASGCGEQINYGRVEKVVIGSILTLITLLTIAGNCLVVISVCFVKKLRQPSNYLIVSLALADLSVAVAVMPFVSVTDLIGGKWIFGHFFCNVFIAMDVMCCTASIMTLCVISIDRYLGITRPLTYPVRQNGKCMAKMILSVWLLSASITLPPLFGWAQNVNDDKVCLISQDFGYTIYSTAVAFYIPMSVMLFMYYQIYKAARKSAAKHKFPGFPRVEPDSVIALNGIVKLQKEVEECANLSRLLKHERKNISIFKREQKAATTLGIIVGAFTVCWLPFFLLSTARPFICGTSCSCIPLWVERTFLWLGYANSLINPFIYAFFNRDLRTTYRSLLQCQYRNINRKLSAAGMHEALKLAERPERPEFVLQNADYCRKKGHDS
Sequence of Histamine H2 (P25021 whole entry): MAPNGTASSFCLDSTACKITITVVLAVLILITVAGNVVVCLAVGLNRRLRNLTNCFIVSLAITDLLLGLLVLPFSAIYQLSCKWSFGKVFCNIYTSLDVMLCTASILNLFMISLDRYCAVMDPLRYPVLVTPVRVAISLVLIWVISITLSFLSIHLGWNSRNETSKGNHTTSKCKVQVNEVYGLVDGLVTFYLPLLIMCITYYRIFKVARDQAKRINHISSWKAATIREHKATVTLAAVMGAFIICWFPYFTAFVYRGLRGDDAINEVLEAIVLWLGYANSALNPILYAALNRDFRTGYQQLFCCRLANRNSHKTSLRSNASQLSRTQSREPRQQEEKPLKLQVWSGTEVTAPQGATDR
T2 sequence (P14416 whole entry): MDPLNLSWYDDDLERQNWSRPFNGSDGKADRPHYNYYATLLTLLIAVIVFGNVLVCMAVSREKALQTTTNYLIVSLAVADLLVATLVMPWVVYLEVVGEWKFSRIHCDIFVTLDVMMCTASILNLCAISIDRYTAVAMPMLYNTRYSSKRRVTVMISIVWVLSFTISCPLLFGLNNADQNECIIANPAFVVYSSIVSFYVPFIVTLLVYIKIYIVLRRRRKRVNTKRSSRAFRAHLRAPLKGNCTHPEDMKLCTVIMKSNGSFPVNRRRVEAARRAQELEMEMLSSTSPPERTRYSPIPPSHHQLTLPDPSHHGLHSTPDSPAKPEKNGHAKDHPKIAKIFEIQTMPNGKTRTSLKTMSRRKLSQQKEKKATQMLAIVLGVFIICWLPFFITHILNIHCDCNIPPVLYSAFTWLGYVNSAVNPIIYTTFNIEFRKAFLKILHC
Sequence of Opioid MOR (P35372 whole entry): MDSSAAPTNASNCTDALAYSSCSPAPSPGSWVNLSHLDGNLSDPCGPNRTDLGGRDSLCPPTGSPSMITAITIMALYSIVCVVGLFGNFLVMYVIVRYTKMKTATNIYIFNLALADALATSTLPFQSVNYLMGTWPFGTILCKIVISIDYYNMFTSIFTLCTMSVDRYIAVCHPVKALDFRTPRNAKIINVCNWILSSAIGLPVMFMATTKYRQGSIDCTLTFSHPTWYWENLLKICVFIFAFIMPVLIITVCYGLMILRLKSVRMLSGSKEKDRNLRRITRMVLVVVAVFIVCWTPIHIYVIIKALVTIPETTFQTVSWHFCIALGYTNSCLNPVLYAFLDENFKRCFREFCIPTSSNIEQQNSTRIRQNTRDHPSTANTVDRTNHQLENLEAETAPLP
Sequence of Opioid KOR (P41145 whole entry): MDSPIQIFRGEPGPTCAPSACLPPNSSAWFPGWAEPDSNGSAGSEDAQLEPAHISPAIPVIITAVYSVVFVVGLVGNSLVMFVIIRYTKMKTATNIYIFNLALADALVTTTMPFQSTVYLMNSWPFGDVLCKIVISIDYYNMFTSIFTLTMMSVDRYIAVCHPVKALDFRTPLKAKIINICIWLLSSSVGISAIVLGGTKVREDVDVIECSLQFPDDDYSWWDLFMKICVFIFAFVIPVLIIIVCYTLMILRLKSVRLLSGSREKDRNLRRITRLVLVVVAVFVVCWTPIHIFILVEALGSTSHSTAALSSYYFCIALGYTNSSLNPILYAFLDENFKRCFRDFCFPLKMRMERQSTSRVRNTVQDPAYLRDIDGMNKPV

SMILES | Ki (Histamine H2) | inhibition at 10 µM (Opioid KOR) | Ki (nM) or % inhibition at 10 µM: BZP Rat Brain Site (BZP Rat Brain Site) | Ki (Muscarinic M2) | inhibition at 10 µM (Serotonin 5-HT7A) | Ki [1] | inhibition at 10 µM (Histamine H3) | Ki (human D2 receptors) | Ki (nM) or % inhibition at 10 µM: GABAA (GABAA) | Ki (Adrenergic alpha2B) | Emax (human D3 receptors) | IC50 (human D3 receptors) | Ki (Opioid MOR) | Ki (Serotonin 5-HT1D) | inhibition at 10 µM (Muscarinic M2; read-out: Ki (nM) or % inhibition at 10 µM: M2) | Ki (nM) or % inhibition at 10 µM: Benzodiazepine receptor (PBR) [1] | inhibition at 10 µM (Histamine H2; read-out: Ki (nM) or % inhibition at 10 µM: H2) | inhibition at 10 µM (Opioid MOR; read-out: Ki (nM) or % inhibition at 10 µM: MOR) | inhibition at 10 µM (Serotonin 5-HT1D; read-out: Ki (nM) or % inhibition at 10 µM: 5-HT1D)
CCN(CCCNC(=O)c1cc2ccccc2n1C)CCNC(=O)c1cc(Br)cc(OC)c1OC [21j, N-(3-((2-(5-Bromo-2,3-dimethoxybenzamido)ethyl)(ethyl)amino)propyl)-1-methyl-1H-indole-2-carboxamide] | 3680 nM | < 50% | N/A (N/A; not active means less than 50% inhibition that was obtained in primary binding assay at 10 µM of the compound) | 2970 nM | < 50% | 8 nM | < 50% | 192 ± 22 nM | N/A (N/A; not active means less than 50% inhibition that was obtained in primary binding assay at 10 µM of the compound) | 646 nM | 81.5 ± 10.1% | 4.8 ± 0.8 nM | 2770 nM | 1930 nM |  |  |  |  | 
CCN(CCCNC(=O)c1ccc2ccccc2c1)CCNC(=O)c1cc(Br)cc(OC)c1OC [21a, N-(3-((2-(5-Bromo-2,3-dimethoxybenzamido)ethyl)(ethyl)amino)propyl)-2-naphthamide] | 2790 nM | < 50% | N/A (N/A; not active means less than 50% inhibition that was obtained in primary binding assay at 10 µM of the compound) |  | < 50% | 9 nM | < 50% | 169 ± 12 nM | N/A (N/A; not active means less than 50% inhibition that was obtained in primary binding assay at 10 µM of the compound) | 577 nM | 66.1 ± 17.6% | 16.4 ± 7.7 nM | 1080 nM | 1200 nM | < 50% | relatively high affinity |  |  | 
CCN(CCCNC(=O)c1cn2ccccc2n1)CCNC(=O)c1cc(Br)cc(OC)c1OC [21e, N-(3-((2-(5-Bromo-2,3-dimethoxybenzamido)ethyl)(ethyl)amino)propyl)imidazo[1,2-a]pyridine-2-carboxamide] |  | < 50% | N/A (N/A; not active means less than 50% inhibition that was obtained in primary binding assay at 10 µM of the compound) | 9440 nM | < 50% | 11 nM | < 50% | 142 ± 16 nM | N/A (N/A; not active means less than 50% inhibition that was obtained in primary binding assay at 10 µM of the compound) | 2830 nM | 85.4 ± 6% | 4.3 ± 2.5 nM |  |  |  | relatively high affinity | < 50% | < 50% | < 50%
